Experimental data taken from ChEMBL document CHEMBL6103648, “AI-Driven Discovery of Highly Specific and Efficacious hCES2A Inhibitors for Ameliorating Irinotecan-Triggered Gut Toxicity” (J Med Chem, 2025).
Active and inactive are the calls of the source. The calls are words filed in the database; no cut-off is given here.

Key:
[1] = system: Caco-2; test: Cytotoxicity against human Caco-2 cells at 100 uM incubated for 24 hrs by CCK8 assay; assay type: toxicity, cell-based; conditions: caco-2, 24 h
[2] = Chemical stability in artificial gastrointestinal fluid at 10 uM measured upto 120 mins by UPLC-MS/MS analysis; assay type: physicochemical; conditions: 2 h
[3] = Sub-acute toxicity in C57BL/6J mouse assessed as abnormality in liver at 100 mg/kg/day, po treated for 14 days consecutively by H and E staining based analysis; assay type: organism-based; conditions: in vivo, 336 h, time 14 day
[4] = Apparent permeability across basal to apical side in human Caco-2 cells at 50 uM incubated for 120 mins by UPLC-MS/MS analysis; assay type: ADME, cell-based
[5] = Sub-acute toxicity in C57BL/6J mouse assessed as abnormality in lung at 100 mg/kg/day, po treated for 14 days consecutively by H and E staining based analysis; assay type: organism-based; conditions: in vivo, 336 h, time 14 day
[6] = Inhibition of human pancreatic lipase using DDAO-ol as substrate preincubated for 3 mins followed by substrate addition by fluorescence based assay
[7] = Efflux ratio of apparent permeability across basal to apical side over apical to basal side in human Caco-2 cells at 50 uM incubated for 120 mins by UPLC-MS/MS analysis; assay type: ADME, cell-based
[8] = system: HepG2; test: Cytotoxicity against human HepG2 cells at <20 uM; assay type: toxicity, cell-based; conditions: hepg2, 20 µM
[9] = Sub-acute toxicity in C57BL/6J mouse assessed as change in ALT level at 100 mg/kg/day, po treated for 14 days consecutively; assay type: organism-based; conditions: in vivo, 336 h, time 14 day
[10] = Sub-acute toxicity in C57BL/6J mouse assessed as abnormality in spleen at 100 mg/kg/day, po treated for 14 days consecutively by H and E staining based analysis; assay type: organism-based; conditions: in vivo, 336 h, time 14 day
[11] = system: Mus musculus; test: Inhibition of irinotecan-triggered gut toxicity in C57BL/6J mouse bearing tumor cells assessed as decrease in IL-6 level in colon tissue administered orally treated for 14 days; assay type: functional, organism-based; conditions: dose 25-50 mg/kg/day, route po, time 14.0 day
[12] = Sub-acute toxicity in C57BL/6J mouse assessed as change in ALP level at 100 mg/kg/day, po treated for 14 days consecutively; assay type: organism-based; conditions: in vivo, 336 h, time 14 day
[13] = Apparent permeability across basal to apical side in human Caco-2 cells at 100 uM incubated for 120 mins by UPLC-MS/MS analysis; assay type: ADME, cell-based
[14] = Sub-acute toxicity in C57BL/6J mouse assessed as body weight change at 100 mg/kg/day, po treated for 14 days consecutively; assay type: organism-based; conditions: in vivo, 336 h, time 14 day
[15] = system: Mus musculus; test: Inhibition of irinotecan-triggered gut toxicity in C57BL/6J mouse bearing tumor cells assessed as increase in colonic length at 25 to 50 mg/kg/day, po treated for 14 days; assay type: functional, organism-based; conditions: dose 25-50 mg/kg/day, time 14.0 day
[16] = Permeability across basal to apical side in human Caco-2 cells assessed as cumulative penetration amount at 50 uM incubated for 120 mins by UPLC-MS/MS analysis; assay type: ADME, cell-based; conditions: caco-2, 2 h
[17] = Permeability across apical to basal side in human Caco-2 cells assessed as cumulative penetration amount at 50 uM incubated for 120 mins by UPLC-MS/MS analysis; assay type: ADME, cell-based; conditions: caco-2, 2 h
[18] = Drug distribution in colon of C57BL/6J mouse at 100 mg/kg, po administered as single dose measured for 0.5 to 3 hrs by UHPLC-Q-Orbitrap HRMS analysis; assay type: ADME, organism-based; conditions: in vivo, time 0.5-3 hrs
[19] = target: Cytochrome P450 2E1 (Homo sapiens, UniProt P05181); test: Inhibition of CYP2E1 in human liver microsomes using chlorzoxazone as substrate upto 10 uM; assay type: ADME, Microsome
Sequence of Cytochrome P450 2E1 (P05181 whole entry): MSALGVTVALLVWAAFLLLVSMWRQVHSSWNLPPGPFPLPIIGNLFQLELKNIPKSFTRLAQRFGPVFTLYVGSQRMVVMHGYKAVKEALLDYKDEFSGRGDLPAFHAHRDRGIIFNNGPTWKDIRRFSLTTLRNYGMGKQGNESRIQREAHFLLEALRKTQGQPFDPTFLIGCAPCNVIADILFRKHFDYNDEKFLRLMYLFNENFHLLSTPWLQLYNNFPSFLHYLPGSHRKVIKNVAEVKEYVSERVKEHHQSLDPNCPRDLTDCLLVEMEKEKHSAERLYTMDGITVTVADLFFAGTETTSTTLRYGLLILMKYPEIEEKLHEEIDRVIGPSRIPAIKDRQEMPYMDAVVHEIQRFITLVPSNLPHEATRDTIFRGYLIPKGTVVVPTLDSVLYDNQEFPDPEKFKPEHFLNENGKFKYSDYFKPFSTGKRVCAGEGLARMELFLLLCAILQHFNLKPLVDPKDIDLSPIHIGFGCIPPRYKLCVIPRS

[20] = organism: Homo sapiens; test: Covalent binding affinity to human CES2A Ser228 catalytic site assessed as covalent modification at 10 uM incubated for 4 hrs by nano-LC-MS/MS analysis
[21] = Inhibition of human CES1A using NLMe as substrate preincubated for 3 mins followed by substrate addition measured after 30 mins by chemiluminescence analysis
[22] = system: Mus musculus; test: Inhibition of irinotecan-triggered gut toxicity in C57BL/6J mouse bearing tumor cells assessed as decrease in serum UREA level at 25 to 50 mg/kg/day, po treated for 14 days; assay type: functional, organism-based; conditions: dose 25-50 mg/kg/day, time 14.0 day
[23] = Sub-acute toxicity in C57BL/6J mouse assessed as change in CREA level at 100 mg/kg/day, po treated for 14 days consecutively; assay type: organism-based; conditions: in vivo, 336 h, time 14 day
[24] = Sub-acute toxicity in C57BL/6J mouse assessed as change in AST level at 100 mg/kg/day, po treated for 14 days consecutively; assay type: organism-based; conditions: in vivo, 336 h, time 14 day
[25] = system: Mus musculus; test: Inhibition of irinotecan-triggered gut toxicity in C57BL/6J mouse bearing tumor cells assessed as increase in occludin level in colon tissue at 25 to 50 mg/kg/day, po treated for 14 days by immunofluorescence based analysis; assay type: functional, organism-based; conditions: dose 25-50 mg/kg/day, time 14.0 day
[26] = Permeability across apical to basal side in human Caco-2 cells assessed as cumulative penetration amount at 25 uM incubated for 120 mins by UPLC-MS/MS analysis; assay type: ADME, cell-based; conditions: caco-2, 2 h
[27] = system: Mus musculus; test: Inhibition of irinotecan-triggered gut toxicity in C57BL/6J mouse bearing tumor cells assessed as decrease in SN38 level in colon tissue at 25 to 50 mg/kg/day, po treated for 14 days; assay type: functional, organism-based; conditions: dose 25-50 mg/kg/day, time 14.0 day
[28] = organism: Homo sapiens; test: Inhibition of human CES2A assessed as decrease in residual activity upto 1.6 nM; conditions: time <= 30.0 min
[29] = Sub-acute toxicity in C57BL/6J mouse assessed as abnormality in heart at 100 mg/kg/day, po treated for 14 days consecutively by H and E staining based analysis; assay type: organism-based; conditions: in vivo, 336 h, time 14 day

With CCN(C)C(=O)Oc1ccc(C(=O)N2CCC(Cc3ccccc3)CC2)cc1OC the Activity [1] was “Non-toxic”, the Stability [2] was “Stable” and the Activity [3] was “Non-toxic”. The Papp B→A at 2 h, 50 µM [4] was 10.5 ×10⁻⁶ cm/s, the Activity [5] was “Non-toxic” and the IC50 [6] was > 10000 nM. The efflux ratio at 2 h, 50 µM [7] was 0.67, the Activity [8] was “Non-toxic” and the Activity [9] was “Non-toxic”. For the same compound, the Activity [10] was “Non-toxic”, the inhibition [11] was “Active” and the Activity [12] was “Non-toxic”. For the same compound, the Papp B→A at 2 h, 100 µM [13] was 7.8 ×10⁻⁶ cm/s, the Activity [14] was “Non-toxic” and the inhibition [15] was “Active”. The Activity [16] was 4.23 µM, the Activity [17] was 6.31 µM and the Drug uptake [18] was “Active”. The “inhibition (INH)” value [19] was “Not_active”, the Activity [20] was “Active; Compound Exhibited As Covalent Inhibitor” and the IC50 [21] was 2420 nM. For the same compound, the inhibition [22] was “Active”, the Activity [23] was “Non-toxic” and the Activity [24] was “Non-toxic”. The inhibition [25] was “Active”, the Activity [26] was 3.17 µM and the inhibition [27] was “Active”. The inhibition [28] was “Time-dependent-effect” and the Activity [29] was “Non-toxic”.
